This note sets out measurements from patent US20230151034A1 (COCRYSTAL PHARMA, INC., priority 2020, published 2023).

This experiment addresses SARS2 protease (Severe acute respiratory syndrome coronavirus 2, UniProt P0DTD1). Nature of the experiment: SARS-CoV-2 protease inhibition assay (SARS2 FRET protease assay). As to conditions: Table E; SARS-CoV-2 protease inhibition; read-out: IC50. It is filed as biochemical. The procedure: Viral protease assays: The antiviral activities of inhibitors were determined by FRET (Fluorescence Resonance Energy Transfer) assay. Purified viral protease was incubated with the protease substrate peptide (Edans-DFHLQ/GP-Dabcyl) and inhibitor, and IC50 values were subsequently determined by the fluorescence signals.
The SARS2 FRET protease assay was performed in 20 mM HEPES-Na pH 7, 120 mM NaCl, 0.4 mM EDTA, 0.01% Triton, 5% glycerol, and 4 mM DTT. A self-quenching peptide substrate 5-FAM-TSA VLQ SGF RKK (5TAMRA)-NH2 was custom synthesized by Anaspec. Compounds were diluted in 3-fold serial dilutions to final concentrations of 20 μM to 1.0 nM. SARS2 protease was added to a final concentration of 25 nM, depending on the enzyme activity level, and the peptide substrate was added to a final concentration of 1.3 μM. The assay was incubated 30 minutes at 30° C. and read in a Perkin Elmer Envision with excitation at 473 nm and emission measurement at 519 nm.
Consider `CCCCCCCC1CC/C=C\CC(C(=O)N(C)C)CC(C=O)NC(=O)[C@H](CC(C)C)NC1=O` (stereo in doubt) [Compound B10, (2S,5S,Z)-5-formyl-13-heptyl-2-isobutyl-N,N-dimethyl-3,14-dioxo-1,4-diazacyclotetradec-9-ene-7-carboxamide], for which the 50% inhibitory concentration (IC50) (as a rule, the point on the concentration scale where inhibition reaches its midpoint) stood at 105 µM.
Take `CCOP(=O)(OCC)C(O)[C@H](CC(C)C(=O)N(C)CCc1ccccc1)NC(=O)[C@H](CC1CCCCC1)NC(=O)OCc1cccc(Cl)c1` (stereo partly drawn) [Compound A104, 3-Chlorobenzyl ((2S)-3-cyclohexyl-1-(((2S)-1-(diethoxyphosphoryl)-1-hydroxy-4-methyl-5-(methyl (phenethyl)amino)-5-oxopentan-2-yl)amino)-1-oxopropan-2-yl)carbamate]: the IC50 was over 200 µM.
As to `CCOP(=O)(OCC)C(O)[C@@H]1CC2(CC=CCCCC(Cc3ccccc3)C(=O)N[C@@H](CC(C)C)C(=O)N1)CCNC2=O` (stereo partly drawn) [Compound B23, Diethyl (((7S,10S)-13-benzyl-10-isobutyl-1,9,12-trioxo-2,8,11-triazaspiro[4.14]nonadec-17-en-7-yl)(hydroxy)methyl)phosphonate], the IC50 turned out to be 46.5 µM.
As for `CCO[N+]([O-])(OCC)[C@H](O)[C@H]1CC2(CCCCCCC(Cc3ccccc3)C(=O)N[C@@H](CC(C)C)C(=O)N1)CCNC2=O` (some centres unmarked) [Compound B41], the half-maximal inhibitory concentration (IC50) is over 200 µM.
As to `CCCCCCCCC(=O)N[C@@H](CC(C)C)C(=O)NC1(C)CCC(=O)N(C)C1(O)C(=O)NC(C)C` (stereo partly drawn) [Compound A5, 2-hydroxy-N-isopropyl-1,3-dimethyl-3-((S)-4-methyl-2-nonanamidopentanamido)-6-oxopiperidine-2-carboxamide], the concentration for half-maximal inhibition (IC50) was over 200 µM.
The figure for `CON(C)C(=O)[C@H](CCC(=O)N(C)CCc1ccccc1)NC(=O)[C@H](CC1CCCCC1)NC(=O)OCc1cccc(Cl)c1` (stereo in doubt) [Compound A30, 3-chlorobenzyl ((S)-3-cyclohexyl-1-(((S)-1-(methoxy(methyl)amino)-5-(methyl(phenethyl)amino)-1,5-dioxopentan-2-yl)amino)-1-oxopropan-2-yl)carbamate] is over 200 µM; for `CCOP(=O)(OCC)[C@H](O)[C@@H]1CC(C(=O)N(C)Cc2ccc(OC)cc2OC)C/C=C/CCC(Cc2ccccc2)OC(=O)N[C@@H](CC(C)C)C(=O)N1` (stereo partly drawn) [Compound B28, Diethyl ((1S)-((4S,7S,E)-15-benzyl-9-((2,4-dimethoxybenzyl)(methyl)carbamoyl)-4-isobutyl-2,5-dioxo-1-oxa-3,6-diazacyclopentadec-11-en-7-yl)(hydroxy)methyl)phosphonate] it is over 200 µM.
Regarding `CCOP(=O)(OCC)C(O)[C@H](CCC(=O)N(C)CCc1cccc(Cl)c1)NC(=O)[C@H](CC1CCCCC1)NC(=O)OCc1cccc(Cl)c1` (stereo partly drawn) [Compound A34, 3-Chlorobenzyl ((2S)-1-(((2S)-5-((3-chlorophenethyl)(methyl)amino)-1-(diethoxyphosphoryl)-1-hydroxy-5-oxopentan-2-yl)amino)-3-cyclohexyl-1-oxopropan-2-yl)carbamate], the IC50 is over 200 µM.
For `CCNC(=O)NCCN(C)C(=O)CC[C@@H](CO)NC(=O)[C@H](CC1CCCCC1)NC(=O)OCc1cccc(Cl)c1` [Compound A100, 3-Chlorobenzyl ((12S,15S)-16-cyclohexyl-12-(hydroxymethyl)-8-methyl-4,9,14-trioxo-3,5,8,13-tetraazahexadecan-15-yl)carbamate], the IC50 was over 200 µM.
`CCCCCCCC1CC/C=C/CC(C(=O)NC)C[C@@H](CO)NC(=O)[C@H](CC(C)C)NC(=O)O1` (stereo partly drawn) [Compound B63, (4S,7S,E)-15-heptyl-7-(hydroxymethyl)-4-isobutyl-N-methyl-2,5-dioxo-1-oxa-3,6-diazacyclopentadec-11-ene-9-carboxamide]: the IC50 was 30 µM.
Regarding `CC(C)C[C@@H]1NC(=O)C(Cc2ccccc2)CCCCCCCC2CC(NC1=O)C(O)N(C)C2=O` (stereo partly drawn) [Compound B24, (4S)-7-benzyl-18-hydroxy-4-isobutyl-17-methyl-2,5,17-triazabicyclo[13.3.1]nonadecane-3,6,16-trione], the IC50 came out at 188 µM.
